Data taken from patent US20250074920A1, “MACROCYCLIC COMPOUNDS AND USE AS KINASE INHIBITORS” (BLOSSOMHILL THERAPEUTICS, INC., priority 2022, published 2025).

How the values were obtained:
Assay in all cases: KINOMEscan kinase binding assay
Conditions in all cases: at 1 μM
YES = tested on: YES
How it was run: (§1)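 KINOMEscan competition assay. T7-phage kinase fusions (E. coli lysates) or DNA-tagged HEK-293 kinases; immobilized biotinylated ligand on beads; 1 h RT incubation; qPCR detection of bound kinase. Output: % Ctrl or Kd.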

HCK = tested on: HCK
How it was run: as §1

CSF1R = tested on: CSF1R
How it was run: as §1

EPHB4 = tested on: EPHB4
How it was run: as §1

FGFR3 = tested on: FGFR3
How it was run: as §1

RET = tested on: RET
How it was run: as §1

KIT(D816H) = tested on: KIT(D816H)
How it was run: as §1

LCK = tested on: LCK
How it was run: as §1

FER = tested on: FER
How it was run: as §1

SRMS = tested on: SRMS
How it was run: as §1

[1] = tested on: ABL1(F317I)-nonphosphorylated
How it was run: as §1

Row | SMILES | % Ctrl (YES) | % Ctrl (HCK) | % Ctrl (CSF1R) | % Ctrl (EPHB4) | % Ctrl (FGFR3) | % Ctrl (RET) | % Ctrl (KIT(D816H)) | % Ctrl (LCK) | % Ctrl (FER) | % Ctrl (SRMS) | % Ctrl [1]
1 | Cc1cc2c([nH]1)/C=C1\C(=O)Nc3c(Cl)cc(cc31)-c1cn(C)nc1COC[C@@H](C)NC2=O [Cpd. 3, [3a(4)Z,10R]-20-chloro-6,10,15-trimethyl-10,11,13,15-tetrahydro-2H-1,17-(ethanediylidene)pyrazolo[4,3-m]dipyrrolo[3,2-f:3′,4′-i][1,4]oxazacyclopentadecine-3,8(5H,9H)-dione] | 99% | 100% | 100% | 97% | 89% | 96% | 94% | 87% | 73% | 69% | 100%
2 | Cc1cc2c([nH]1)/C=C1\C(=O)Nc3ccc(cc31)-c1c(nn(C)c1C)COCCN(C)C2=O [Cpd. 2, [3a(4)Z]-6,9,15,16-tetramethyl-10,11,13,15-tetrahydro-2H-1,17-(ethanediylidene)pyrazolo[4,3-m]dipyrrolo[3,2-f:3′,4′-i][1,4]oxazacyclopentadecine-3,8(5H,9H)-dione] | 100% | 100% | 82% | 100% | 88% | 90% | 98% | 100% | 100% | 90% | 100%
3 | Cc1cc2c([nH]1)/C=C1\C(=O)Nc3c(Cl)cc(cc31)-c1cn(C)nc1COC[C@@H](C)N(C)C2=O [Cpd. 5, [3a(4)Z,10R]-20-chloro-6,9,10,15-tetramethyl-10,11,13,15-tetrahydro-2H-1,17-(ethanediylidene)pyrazolo[4,3-m]dipyrrolo[3,2-f:3′,4′-i][1,4]oxazacyclopentadecine-3,8(5H,9H)-dione] | 86% | 100% | 96% | 91% | 90% | 95% | 77% | 94% | 68% | 61% | 90%
4 | C[C@@H]1COCc2nn(C)cc2-c2cc(Cl)c3c(c2)/C(=C/c2[nH]ccc2C(=O)N1)C(=O)N3 [Cpd. 4, [3a(4)Z,10R]-20-chloro-10,15-dimethyl-10,11,13,15-tetrahydro-2H-1,17-(ethanediylidene)pyrazolo[4,3-m]dipyrrolo[3,2-f:3′,4′-i][1,4]oxazacyclopentadecine-3,8(5H,9H)-dione] | 95% | 100% | 92% | 98% | 87% | 100% | 80% | 88% | 68% | 68% | 95%
5 | Cc1cc2c([nH]1)/C=C1\C(=O)Nc3ccc(cc31)-c1c(nn(C)c1C)OCCCN(C)C2=O [Cpd. 1, [3a(4)Z]-6,9,15,16-tetramethyl-9,10,11,12-tetrahydro-15H-1,17-(ethanediylidene)pyrazolo[4,3-n]dipyrrolo[3,2-g:3′,4′-j][1,5]oxazacyclopentadecine-3,8(2H,5H)-dione] | 100% | 93% | 98% | 86% | 96% | 94% | 74% | 95% | 97% | 93% | 91%
